We go through 18 compounds from article PMC9574867, “Discovery and Characterization of Synthesized and FDA-Approved Inhibitors of Clostridial and Bacillary Collagenases” (Journal of Medicinal Chemistry, 2022).

Values after ≈ are worked out from the molar mass of the structure shown. “Also recorded” adds a separate entry of the source. A value given as a limit tells only on which side of the number the result lay.

One experiment addresses ColQ1-CU (Bacillus cereus, UniProt B9J3S4). Briefly: biochemical. The arrangement: species or system B. cereus strain Q1.
The target in another experiment is ColQ1-FL (Bacillus cereus, UniProt B9J3S4). The format is biochemical. The settings on record: 12.5–1.5 μM tested, SDS-PAGE.
In experiment [1] the test system is B. cereus collagenases released in the NHDF infection model. The format is cell-based, B. cereus AH187.
In experiment [2] the test system is NHDF cells infected with B. cereus. The experiment is described as follows: NHDF infection model, cell morphology/attachment and fibrillar collagen (picrosirius red). It counts as cell-based, human. The settings on record: B. cereus infection, 5 h.
The test system of the next experiment is B. cereus AH187. The experiment is described as follows: B. cereus growth inhibition assay. The format is cell-based. The settings on record: Bacillus cereus, AH187; BHI medium, 37 °C, 48 h, 200–3 μM; read-out: MIC50 (µM) AH187.

ColQ1-FL, sequence (B9J3S4 94-965 limits assumed): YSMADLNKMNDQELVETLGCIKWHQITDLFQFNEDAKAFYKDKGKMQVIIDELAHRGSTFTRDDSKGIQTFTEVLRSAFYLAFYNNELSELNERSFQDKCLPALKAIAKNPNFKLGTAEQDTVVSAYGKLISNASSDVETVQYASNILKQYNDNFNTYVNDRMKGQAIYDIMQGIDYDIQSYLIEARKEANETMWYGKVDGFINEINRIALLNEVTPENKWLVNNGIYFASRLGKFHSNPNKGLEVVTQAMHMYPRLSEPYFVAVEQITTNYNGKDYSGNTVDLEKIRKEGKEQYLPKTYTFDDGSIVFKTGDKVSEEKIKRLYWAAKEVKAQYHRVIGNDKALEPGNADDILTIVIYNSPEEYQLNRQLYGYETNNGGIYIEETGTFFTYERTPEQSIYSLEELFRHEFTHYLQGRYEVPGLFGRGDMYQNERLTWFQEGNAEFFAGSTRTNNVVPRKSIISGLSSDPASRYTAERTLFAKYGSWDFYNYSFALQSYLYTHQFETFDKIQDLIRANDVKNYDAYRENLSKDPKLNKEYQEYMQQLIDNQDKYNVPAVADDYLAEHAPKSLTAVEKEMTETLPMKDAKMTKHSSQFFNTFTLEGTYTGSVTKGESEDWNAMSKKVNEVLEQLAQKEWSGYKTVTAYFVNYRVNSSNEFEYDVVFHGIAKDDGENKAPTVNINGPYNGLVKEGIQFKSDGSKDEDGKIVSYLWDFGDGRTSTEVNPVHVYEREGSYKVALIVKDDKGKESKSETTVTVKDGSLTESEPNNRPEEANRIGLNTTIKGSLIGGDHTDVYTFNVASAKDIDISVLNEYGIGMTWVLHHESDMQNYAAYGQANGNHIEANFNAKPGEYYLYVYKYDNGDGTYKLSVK
ColQ1-CU, sequence (B9J3S4 94-765 limits assumed): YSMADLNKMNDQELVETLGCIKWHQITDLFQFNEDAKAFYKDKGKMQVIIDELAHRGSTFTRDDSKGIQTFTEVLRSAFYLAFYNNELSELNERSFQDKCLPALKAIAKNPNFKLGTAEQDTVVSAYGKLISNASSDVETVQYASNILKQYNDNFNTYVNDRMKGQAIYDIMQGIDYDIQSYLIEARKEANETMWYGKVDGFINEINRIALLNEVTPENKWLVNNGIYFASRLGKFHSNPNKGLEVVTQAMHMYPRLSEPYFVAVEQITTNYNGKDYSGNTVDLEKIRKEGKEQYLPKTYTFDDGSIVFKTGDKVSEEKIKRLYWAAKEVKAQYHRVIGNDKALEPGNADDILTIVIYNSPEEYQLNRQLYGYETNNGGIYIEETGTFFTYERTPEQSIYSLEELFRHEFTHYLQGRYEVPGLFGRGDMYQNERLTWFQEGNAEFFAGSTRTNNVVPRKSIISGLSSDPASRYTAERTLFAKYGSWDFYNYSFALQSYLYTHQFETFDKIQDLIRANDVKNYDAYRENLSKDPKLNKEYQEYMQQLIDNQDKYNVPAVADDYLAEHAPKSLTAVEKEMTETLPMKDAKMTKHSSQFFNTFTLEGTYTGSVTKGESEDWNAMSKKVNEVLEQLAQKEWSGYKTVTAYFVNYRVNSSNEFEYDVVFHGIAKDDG

Turning to `O=P(O)(O)C(Cl)(Cl)P(=O)(O)O` [Clodronate disodium, reference compound], the inhibition – broadly, the change of the read-out against control, counted positive when it falls – at 100 µM against ColQ1-CU was less than 5%.

With `O=P(O)(O)c1nc2ccccc2nc1P(=O)(O)O` [Compound 7, Quinoxaline-2,3-diylbis(phosphonic acid)], the inhibition at 100 µM on ColQ1-CU came out at 40 ± 7%.

`CCOP(=O)(OCC)c1nc2ccccc2nc1P(=O)(OCC)OCC` [Compound 7c, Tetraethyl Quinoxaline-2,3-diylbis(phosphonate)] gave an inhibition at 100 µM at ColQ1-CU of less than 5%. Further, the “Inhibition (%)” value on ColQ1-CU (100 μM) is given as 7c; O=P(OCC)(OCC)C2=NC1=CC=CC=C1N=C2P(OCC)(OCC)=O; 3 ± 2%.

`O=P(O)(O)c1nc2ccc(F)cc2nc1P(=O)(O)O` [Compound 8, (6-Fluoroquinoxaline-2,3-diyl)bis(phosphonic acid)]: the “Inhibition (%)” value at ColQ1-CU (100 μM) is 8; O=P(O)(O)C2=NC1=CC(F)=CC=C1N=C2P(O)(O)=O; 38 ± 3%.

For `O=P(O)(O)c1nc2ccc(Cl)cc2nc1P(=O)(O)O` [Compound 9, (6-Chloroquinoxaline-2,3-diyl)bis(phosphonic acid)], the IC50 (as a rule, the concentration that inhibits the measured activity by half) at ColQ1-CU is 4 ± 0.6 µM.

In the case of `Cc1ccc2nc(P(=O)(O)O)c(P(=O)(O)O)nc2c1` [Compound 11, (6-Methylquinoxaline-2,3-diyl)bis(phosphonic acid)], the “Protection of Col I chains from cleavage by ColQ1-FL” value (“Protection of Col I chains” for short) on ColQ1-FL was “inhibited the collagenase activity at all concentrations tested”. In addition, in experiment [1], the “Inhibitory effect on gelatinolytic activity of secreted collagenases” value (from here on “Inhibitory effect”) is on record as “inhibited the collagenase activity toward gelatin only marginally at 100 μM”. The “Effect on cell morphology and ECM collagen content of infected NHDF cells” value in experiment [2] was “smaller effect at all concentrations tested”. For the same compound, in the experiment with B. cereus AH187, the MIC50 (commonly the lowest concentration that inhibits either 50% of growth or 50% of the strains tested, depending on the study) was determined as 200 µM (≈ 60.8 µg/mL). On ColQ1-CU, this compound gave a half-inhibitory concentration (IC50) of 3.4 ± 0.1 µM and an inhibition at 100 µM of 58%.

At ColQ1-CU, `CCOP(=O)(OCC)c1nc2ccc(C)cc2nc1P(=O)(OCC)OCC` [Compound 11c, tetraethyl (6-methylquinoxaline-2,3-diyl)bis(phosphonate)] showed an inhibition at 100 µM of less than 5%. On ColQ1-CU (100 μM), the “Inhibition (%)” value is listed as 11c; O=P(OCC)(OCC)C2=NC1=CC(C)=CC=C1N=C2P(OCC)(OCC)=O; 8 ± 4%.

`COc1ccc2nc(P(=O)(O)O)c(P(=O)(O)O)nc2c1` [Compound 12, (6-Methoxyquinoxaline-2,3-diyl)bis(phosphonic acid)] yielded an inhibition at 100 µM on ColQ1-CU of 23 ± 6%.

Consider `CCOP(=O)(OCC)c1nc2ccc(OC)cc2nc1P(=O)(OCC)OCC` [Compound 12c, tetraethyl (6-methoxyquinoxaline-2,3-diyl)bis(phosphonate)], for which, at ColQ1-CU (100 μM), the “% Inhibition” value is “n.i. (key: n.i.: no inhibition (percent inhibition < 5%))” and the “Inhibition (%)” value is recorded as 12c; O=P(OCC)(OCC)C2=NC1=CC(OC)=CC=C1N=C2P(OCC)(OCC)=O; 0 ± 2%.

As to `O=c1[nH]c2cc(Cl)c(Cl)cc2nc1P(=O)(O)O` [Compound 16, (6,7-Dichloro-3-oxo-3,4-dihydroquinoxalin-2-yl)phosphonic Acid], the “Protection of Col I chains” value at ColQ1-FL was “severe degradation was visible at all tested concentrations”. This compound came in with an inhibition at 100 µM against ColQ1-CU of less than 5%. Besides, the “Inhibition (%)” value on ColQ1-CU (100 μM) is on record as 16; O=P(O)(O)C2=NC1=CC(Cl)=C(Cl)C=C1NC2=O; 5 ± 2%.

Regarding `CC(=O)Nc1cccc(OCc2cn(CCNC(=O)C(CC(C)C)C(=O)NO)nn2)c1` (stereo not drawn) [Compound 28, N-[2-[4-[(3-Acetamidophenoxy)methyl]triazol-1-yl]ethyl]-2-(hydroxycarbamoyl)-4-methyl-pentanamide], the “Protection of Col I chains” value on ColQ1-FL was “severe degradation was visible at all tested concentrations”. In addition, the “Inhibitory effect” value in experiment [1] is “no inhibitory effect on the collagenase in the zymography at all tested concentrations; also recorded: no inhibition of the collagenase in the gelatin zymography was detected”. The “Effect on cell morphology and ECM collagen content of infected NHDF cells” value in experiment [2] is “neither able to rescue cell morphology nor able to maintain the collagen content of the ECM”. Also, the half-inhibitory concentration (IC50) against ColQ1-CU was determined as 35 ± 1 µM.

With `CC(=O)Nc1ccc(OCc2cn(CCNC(=O)C(CC(C)C)C(=O)NO)nn2)cc1` (stereo not drawn) [Compound 29, N-[2-[4-[(4-Acetamidophenoxy)methyl]triazol-1-yl]ethyl]-2-(hydroxycarbamoyl)-4-methyl-pentanamide], the “Protection of Col I chains” value on ColQ1-FL was “severe degradation was visible at all tested concentrations”. For the same compound, the “Inhibitory effect” value in experiment [1] is listed as “no inhibitory effect on the collagenase in the zymography at all tested concentrations; also recorded: no inhibition of the collagenase in the gelatin zymography was detected”. Besides, in experiment [2], the “Effect on cell morphology and ECM collagen content of infected NHDF cells” value is given as “neither able to rescue cell morphology nor able to maintain the collagen content of the ECM”. Besides, the midpoint of inhibition at ColQ1-CU, the IC50, lay at 35 ± 3 µM.

Turning to `CC(C)CC(C(=O)NO)C(=O)NCCn1cc(COc2ccccc2F)nn1` (stereo not drawn) [Compound 30, N-[2-[4-[(2-Fluorophenoxy)methyl]triazol-1-yl]ethyl]-2-(hydroxycarbamoyl)-4-methyl-pentanamide], in experiment [1], the “Inhibitory effect” value was “no inhibitory effect on the collagenase in the zymography at all tested concentrations”. At ColQ1-CU, this compound registered an IC50 of 16.2 ± 0.8 µM and an inhibition at 100 µM of 92%.

Turning to `CC(C)CC(C(=O)NO)C(=O)NCCn1cc(COc2ccccc2)nn1` (stereo not drawn) [Compound 31, 2-(Hydroxycarbamoyl)-4-methyl-N-[2-[4-(phenoxymethyl)triazol-1-yl]ethyl]pentanamide], the “Protection of Col I chains” value on ColQ1-FL was “severe degradation was visible at all tested concentrations”. Besides, in experiment [1], the “Inhibitory effect” value is “no inhibitory effect on the collagenase in the zymography at all tested concentrations; also recorded: no inhibition of the collagenase in the gelatin zymography was detected”. The “Effect on cell morphology and ECM collagen content of infected NHDF cells” value in experiment [2] was “neither able to rescue cell morphology nor able to maintain the collagen content of the ECM”. Further, the IC50 against ColQ1-CU was found to be 12 ± 1 µM.

For the compound `CC(C)CC(C(=O)NO)C(=O)NCCn1cc(CSc2ccccc2)nn1` (stereo not drawn) [Compound 32, 2-(Hydroxycarbamoyl)-4-methyl-N-[2-[4-(phenylsulfanylmethyl)triazol-1 yl]ethyl]pentanamide], the “Protection of Col I chains” value on ColQ1-FL is reported as “severe degradation was visible at all tested concentrations”. In experiment [1], the “Inhibitory effect” value is recorded as “no inhibitory effect on the collagenase in the zymography at all tested concentrations; also recorded: no inhibition of the collagenase in the gelatin zymography was detected”. Also, in experiment [2], the “Effect on cell morphology and ECM collagen content of infected NHDF cells” value is listed as “neither able to rescue cell morphology nor able to maintain the collagen content of the ECM”. Besides, the IC50 at ColQ1-CU amounted to 10.1 ± 0.9 µM.

Turning to `CCCCCN(C)CCC(O)(P(=O)(O)O)P(=O)(O)O` [Ibandronate sodium, reference compound], on ColQ1-CU, the inhibition at 100 µM was less than 5%.

`NCCCCCC(O)(P(=O)(O)O)P(=O)(O)O` [Neridronate, reference compound] yielded an inhibition at 100 µM against ColQ1-CU of less than 5%.

On ColQ1-CU, `O=P(O)(O)C(O)(Cc1cccnc1)P(=O)(O)O` [Risedronate sodium, reference compound] yielded an inhibition at 100 µM of less than 5%.
